Data reported in ChEMBL document CHEMBL5543072, “Discovery of a novel lead characterized by a stilbene-extended scaffold against sepsis as soluble epoxide hydrolase inhibitors” (Eur J Med Chem, 2024).
Activity calls are given as the source filed them. No cut-off for these calls is given here.

Columns and labels:
[1] = molecular target: T1, Bifunctional epoxide hydrolase 2 (Mus musculus, UniProt P34914)
T1 sequence (P34914 whole entry): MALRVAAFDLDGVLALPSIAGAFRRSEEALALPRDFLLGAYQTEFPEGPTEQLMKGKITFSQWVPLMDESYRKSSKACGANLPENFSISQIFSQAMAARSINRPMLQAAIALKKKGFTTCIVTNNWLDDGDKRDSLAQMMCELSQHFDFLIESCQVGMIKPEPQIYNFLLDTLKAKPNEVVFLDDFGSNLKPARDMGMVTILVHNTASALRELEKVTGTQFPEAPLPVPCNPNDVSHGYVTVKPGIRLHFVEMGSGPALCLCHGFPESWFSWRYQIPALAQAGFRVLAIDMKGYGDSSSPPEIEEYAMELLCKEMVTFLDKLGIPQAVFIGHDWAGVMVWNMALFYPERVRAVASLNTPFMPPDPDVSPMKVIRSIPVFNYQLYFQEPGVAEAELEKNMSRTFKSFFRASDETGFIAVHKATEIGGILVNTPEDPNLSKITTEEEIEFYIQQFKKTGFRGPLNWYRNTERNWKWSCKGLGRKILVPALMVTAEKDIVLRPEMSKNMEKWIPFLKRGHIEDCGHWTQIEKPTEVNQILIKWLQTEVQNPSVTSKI

[2] = test system: Mus musculus; test: Protection against LPS-induced sepsis in C57BL/6J mouse model assessed as survival rate at 5 mg/kg, iv measured after 24 hrs relative to control; type: functional
[3] = test system: Mus musculus; test: Protection against LPS-induced sepsis in C57BL/6J mouse model assessed as survival rate at 5 mg/kg, iv measured after 72 hrs relative to control; type: functional
[4] = test system: Mus musculus; test: Protection against LPS-induced sepsis in C57BL/6J mouse model assessed as survival rate at 5 mg/kg, iv measured after 48 hrs relative to control; type: functional
[5] = test system: Mus musculus; test: Protection against LPS-induced sepsis in C57BL/6J mouse model assessed as […] at 5 mg/kg, iv measured after 32 hrs relative to control; type: functional
[6] = test system: Mus musculus; test: Protection against LPS-induced sepsis in C57BL/6J mouse model assessed as delay in death time at 0.5 to 5 mg/kg, ip measured upto 72 hrs; type: functional, organism-based; settings: dose 0.5-5 mg/kg
[7] = Cytotoxicity in HEK293T cells assessed as cell viability at 5 uM incubated for 48 hrs by CCK8 assay relative to control; type: toxicity, cell-based, HEK-293T; settings: human, read-out: Activity
[8] = Toxicity in LPS-induced sepsis C57BL/6J mouse model assessed as effect on survival rate at 0.5 to 5 mg/kg, ip measured upto 72 hrs; type: organism-based; settings: in vivo, dose 0.5-5 mg/kg
[9] = molecular target: T2, Bifunctional epoxide hydrolase 2 (Homo sapiens, UniProt P34913)
T2 sequence (P34913 whole entry): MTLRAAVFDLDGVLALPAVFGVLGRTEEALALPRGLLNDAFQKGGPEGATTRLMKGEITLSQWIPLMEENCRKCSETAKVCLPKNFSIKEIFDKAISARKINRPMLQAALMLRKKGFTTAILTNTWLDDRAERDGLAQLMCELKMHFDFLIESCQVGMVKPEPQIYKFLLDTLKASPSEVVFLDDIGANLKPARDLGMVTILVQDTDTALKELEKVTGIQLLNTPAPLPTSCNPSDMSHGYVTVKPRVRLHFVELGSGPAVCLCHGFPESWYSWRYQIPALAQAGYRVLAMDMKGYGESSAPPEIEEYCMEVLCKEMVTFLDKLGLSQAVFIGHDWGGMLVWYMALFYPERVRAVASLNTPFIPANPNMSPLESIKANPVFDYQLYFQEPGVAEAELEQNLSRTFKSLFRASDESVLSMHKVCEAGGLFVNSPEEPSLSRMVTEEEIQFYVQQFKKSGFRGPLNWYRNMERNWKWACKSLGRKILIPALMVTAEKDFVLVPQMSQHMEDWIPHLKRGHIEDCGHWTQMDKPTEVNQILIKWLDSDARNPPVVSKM

[10] = Cytotoxicity in HEK293T cells assessed as cell viability at 50 uM incubated for 48 hrs by CCK8 assay relative to control; type: toxicity, cell-based, HEK-293T; settings: human, read-out: Activity
[11] = Cytotoxicity against human HepG2 cells assessed as cell viability at 5 uM incubated for 48 hrs by CCK8 assay relative to control; type: toxicity, cell-based; settings: read-out: Activity
[12] = Cytotoxicity against human HepG2 cells assessed as cell viability at 50 uM incubated for 48 hrs by CCK8 assay relative to control; type: toxicity, cell-based; settings: read-out: Activity

SMILES	IC50 [1] [nM]	further results
COc1cc(/C=C/c2cccc(NC(=O)NCC3CCOCC3)c2)cc(OC)c1	91.3	
O=C(Cc1ccccn1)Nc1ccc(/C=C/c2ccc(NC(=O)NCC3CCOCC3)cc2)cc1	3.45	
COc1cc(/C=C/c2cccc(NC(=O)NCC(C)C)c2)cc(OC)c1	44.5	
CC[C@H](C)C(=O)N1CCC(NC(=O)Nc2ccc(OC(F)(F)F)c(F)c2)CC1		survival at 5 mg/kg [2]: 30%; survival at 5 mg/kg [3]: 0%; survival at 5 mg/kg [4]: 0%
COc1cc(/C=C/c2ccc(NC(=O)NCC(C)C)cc2)cc(OC)c1	1.92	
CC(C)CNC(=O)Nc1ccc(/C=C/c2ccc3c(c2)OCO3)c(F)c1	6.72	
CC(C)CCNC(=O)Nc1ccc(/C=C/c2ccc3c(c2)OCO3)cc1	1.22	
CN1CCC(NC(=O)Nc2ccc(/C=C/c3ccc4c(c3)OCO4)cc2)CC1	2600	
CC(C)CNC(=O)Nc1cccc(/C=C/c2ccc3c(c2)OCO3)c1	2.03	
CCC(=O)N1CCC(NC(=O)Nc2ccc(/C=C/c3ccc4c(c3)OCO4)cc2)CC1	8.02	
CC(C)CNC(=O)Nc1ccc(/C=C/c2ccc3c(c2)OCO3)cc1F	1.24	
COc1cc(/C=C/c2ccc(CNC(=O)NCC(C)C)cc2)cc(OC)c1	14.3	
CCC(=O)N1CCN(C(=O)Nc2ccc(/C=C/c3ccc4c(c3)OCO4)cc2)CC1	200	
O=C(Cc1cccnc1)Nc1cccc(/C=C/c2ccc(NC(=O)NCC3CCOCC3)cc2)c1	2.03	survival at 5 mg/kg [2]: 70%; survival at 5 mg/kg [3]: 0%; survival at 5 mg/kg [4]: 20%; Activity [5]: 0%
O=C(NCC1CCOCC1)Nc1ccc(/C=C/c2ccc3c(c2)OCO3)cc1	1.63	Activity [6]: Active; viability at 48 h, 5 µM [7]: 98.2%; Activity [8]: Non-Toxic; IC50 [9]: 4.78 nM; viability at 48 h, 50 µM [10]: 84.3%; viability at 48 h, 5 µM [11]: 82.8%; viability at 48 h, 50 µM [12]: 69%
COc1cc(/C=C/c2ccc(NC(=O)N(C)C)cc2)cc(OC)c1	5200	
COc1cc(/C=C/c2ccc(NC(=O)NCC3CCOCC3)cc2)cc(OC)c1	2.53	

SMILES	IC50 [1] [nM]	further results
CC(C)CCNC(=O)Nc1cccc(/C=C/c2ccc3c(c2)OCO3)c1	23.3	
CC(C)CNC(=O)Nc1ccc(/C=C/c2ccc3c(c2)OCO3)cc1	2.68	
CN1CCN(C(=O)Nc2ccc(/C=C/c3ccc4c(c3)OCO4)cc2)CC1	2740	
O=C(Cc1ccc2ncccc2c1)Nc1cccc(/C=C/c2ccc(NC(=O)NCC3CCOCC3)cc2)c1	1.4	survival at 5 mg/kg [2]: 80%; survival at 5 mg/kg [3]: 0%; survival at 5 mg/kg [4]: 0%; Activity [5]: 0%
COc1ccc(/C=C/c2ccc(NC(=O)NCC(C)C)cc2)cc1O	4.76	
O=C(NCC1CCOCC1)Nc1ccc(/C=C/c2cccc(NC(=O)c3ccccn3)c2)cc1	8.42	
O=C(NCC1CCOCC1)Nc1cccc(/C=C/c2ccc3c(c2)OCO3)c1	2.74	
O=C(Cn1ccc2ccccc21)Nc1cccc(/C=C/c2ccc(NC(=O)NCC3CCOCC3)cc2)c1	1.26	
Cc1cc(/C=C/c2ccc3c(c2)OCO3)ccc1NC(=O)NCC(C)C	3.21	
O=C(Cn1c2ccccc2c2ccccc21)Nc1cccc(/C=C/c2ccc(NC(=O)NCC3CCOCC3)cc2)c1	3.31	
COc1cc(/C=C/c2ccc(NC(=O)NCC3CCN(C)CC3)cc2)cc(OC)c1	908	
Cc1cc(NC(=O)NCC(C)C)ccc1/C=C/c1ccc2c(c1)OCO2	3.23	
O=C(Cc1ccncc1)Nc1cccc(/C=C/c2ccc(NC(=O)NCC3CCOCC3)cc2)c1	1.42	
C[C@@H]1C[C@H]2[C@@H]3CCC4=CC(=O)C=C[C@]4(C)[C@@]3(F)[C@@H](O)C[C@]2(C)[C@@]1(O)C(=O)CO [DEXAMETHASONE]		survival at 5 mg/kg [2]: 100%; survival at 5 mg/kg [3]: 100%; survival at 5 mg/kg [4]: 100%
CC(C)CNC(=O)Nc1ccc(/C=C/c2ccc3c(c2)OCO3)c(Cl)c1	4.59	
O=C(Cc1ccccn1)Nc1cccc(NC(=O)c2ccc(NC(=O)NCC3CCOCC3)cc2)c1	67.4	
O=C(NCC1CCOCC1)Nc1ccc(/C=C/c2cccc(C(=O)NCc3ccccn3)c2)cc1	5.78	
